The text below walks through data of article PMC10683472, “Deep Learning-Driven Library Design for the De Novo Discovery of Bioactive Thiopeptides” (ACS Central Science, 2023).

The target of series [1] is T1, IRAK4 (Homo sapiens, UniProt Q9NWZ3).
T1 sequence (Q9NWZ3 1-460): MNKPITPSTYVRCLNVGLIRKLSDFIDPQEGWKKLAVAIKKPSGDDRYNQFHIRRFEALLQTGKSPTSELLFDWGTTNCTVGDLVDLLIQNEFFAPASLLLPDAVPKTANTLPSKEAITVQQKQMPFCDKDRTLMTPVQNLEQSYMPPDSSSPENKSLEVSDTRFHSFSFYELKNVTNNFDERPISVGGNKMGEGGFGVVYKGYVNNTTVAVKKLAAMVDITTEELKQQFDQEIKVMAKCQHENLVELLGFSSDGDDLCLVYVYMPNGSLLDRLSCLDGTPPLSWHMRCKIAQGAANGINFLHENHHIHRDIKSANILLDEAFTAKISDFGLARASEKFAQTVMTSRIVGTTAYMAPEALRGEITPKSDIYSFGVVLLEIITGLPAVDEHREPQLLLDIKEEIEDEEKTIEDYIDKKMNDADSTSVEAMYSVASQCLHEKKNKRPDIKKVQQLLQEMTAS
Kind of series: mRNA display affinity selection against IRAK4, NGS abundance. On the set-up: acids 1-460; NP_057207.2) was purchased from Carna Biosciences; purchased Carna Biosciences (Kobe, Japan). The following applies: IRAK4 selection, NGS abundance rank. The series is classed as binding.

Series [2] has as its target T2, Biotinylated IRAK4 (kinase domain, amino acids 1-460; NP_057207.2) (Homo sapiens, UniProt Q9NWZ3).
T2 construct: acids 1-460; NP_057207.2) was purchased from Carna Biosciences; purchased Carna Biosciences (Kobe, Japan)
T2 sequence (Q9NWZ3 1-460): T1 sequence (Q9NWZ3 1-460)
Kind of series: Surface plasmon resonance binding to IRAK4. The source says:
Reagents were purchased from Nacalai Tesque, Wako Pure Chemical Industries, Sigma-Aldrich Japan, or TCI Chemicals and were used as received. Biotinylated IRAK4 (kinase domain, amino acids 1-460; NP_057207.2) was purchased from Carna Biosciences (Kobe, Japan). Recombinant human TLR10 Fc Chimera protein (extracellular domain, amino acid 20-576; Q9BXR5) was purchased from R&D system (#6619-TR-050). Anti-HA magnetic beads were from Pierce Thermo Fisher Scientific (#88836). Magnetic beads with immobilized streptavidin were from Invitrogen (Dynabeads Streptavidin C1, # 65001). Magnetic beads with immobilized streptavidin were from Invitrogen (Dynabeads Streptavidin M280, #11206D).
Protein purification and synthesis of Streptomyces lactacystinaeus tRNAGlu were done as previously described.1–3 Protein concentration measurements were carried out on a Nanodrop 2000c spectrophotometer (Thermo Scientific) equipped with a 5 mm pathlength quartz cuvette using extinction coefficient values calculated with ExPASy ProtParam tool (https://web.expasy.org/protparam).
Biochemical measurements (sections 2.10 – 2.14) were performed in triplicate or more. Most experiments were reproduced to an analogous outcome at least once. In the cases where the determination of biophysical parameters involved cell assay (CP50 and IC50), reported are standard errors of the fit; otherwise, error bars are standard deviations.
RNA extracted from the gel with 300 mM NaCl were collected by ethanol precipitation followed by centrifugation (15300 g for 15 min) and dissolved in water for storage. tRNAini was aminoacylated with eFx using biotin-Phe-CME as a substrate. tRNAini (25 µM) and eFx (25 µM) were incubated with biotin-Phe-CME (5 mM) in HEPES-KOH buffer (50 mM; pH 7.5) containing 600 mM MgCl2 on ice for 2 h. The reactions were stopped with the addition of 300 mM NaOAc (pH 5.2), and precipitated with ethanol. Precipitated RNA was recovered by centrifugation (15300 g for 15 min). The pellet was washed with 70% ethanol in water (v/v) containing 100 mM NaOAc (pH 5.2) and used in translation.
2.10. Surface plasmon resonance
Binding affinities between the thiopeptides and IRAK4/TLR10 were measured with a Biacore 8K instrument (GE Healthcare) at 25 °C. The assay buffer for IRAK4 binding analysis contained 50 mM Tris (pH 7.5), 150 mM NaCl, 10 mM MgCl2, 0.05% (v/v) tween-20 and 0.1% (v/v) DMSO. The […]
Biotinylated IRAK4 was immobilized on a Biacore CAP chip (GE Healthcare) to a surface density […]
step was allowed to proceed for 480 s. Kinetic parameters and affinities of the interaction were […]
provided by the manufacturer. The interaction sensorgrams were measured as single -cycle […]
Kinetic parameters and affinities of the
Evaluation Software v.3.0 (GE Healthcare).
For orientation: SPR reads the build-up and loss of mass on a sensor chip optically.

Series [3] can be described thus: Serum stability assay. The series is classed as in vitro ADME. Conditions: pH 7.6; human serum, 37 °C, LC/MS; read-out: serum stability τ1/2 (converted). On the procedure:
Next, we tested the metabolic stability of the discovered thiopeptides. The compounds were incubated in human serum at 37 °C in the presence of an internal control, and the amounts of the remaining analytes were quantified by LC/MS (Figures S27 and 28). […] At the other extreme, IR11 rapidly degraded in human serum with τ1/2 = 0.5 h. […]
Kinetic parameters and affinities of the […]
2.12. Thiopeptide metabolic stability experiments
The mixtures were stirred
well and transferred to a 37 °C thermostat. […]

The target of series [4] is T1, IRAK4. Kind of series: Single-round mRNA display binding assay (qPCR), IRAK4. Also noted: acids 1-460; NP_057207.2) was purchased from Carna Biosciences; purchased Carna Biosciences (Kobe, Japan). The following applies: ratio of cDNA recoveries (qPCR), IRAK4 pulldown over beads only, single-round selection.
The test system of series [5] is THP1-XBlue cells. Kind of series: Cell viability with Cell Counting Kit-8. Conditions: at the tested concentrations. Here is the method: 2.13. NF-kB signaling pathway inhibition assay
THP-1 Cellular Assay. THP1-XBlue cells containing an NF-kB-inducible secreted embryonic alkaline phosphatase (SEAP) reporter gene (InvivoGen) were seeded to 96-well assay plates (10^5 cells/well) with RPMI 1640 culture medium containing 10% fetal calf serum. The cells were pre-treated with various concentration of analyte thiopeptide inhibitor in 0.1% DMSO and incubated at 37 °C for 6 h. LPS-EK (30 ng/mL, InvivoGen) was subsequently added to activate the NF-kB signalling for 20 h. To quantitate SEAP activity, supernatants were harvested (300 g, 5min) and mixed with Quanti-Blue (InvivoGen) detection reagent following the manufacturer’s instructions.
Cells were assayed with cell counting kit-8 in parallel to rule out potential cytotoxicity. The plates

Series [6] concerns the target T3, interleukin-1 receptor-associated kinase 4 (UniProt Q9NWZ3 1-460).
T3 construct: interleukin-1 receptor-associated kinase 4 (IRAK4); also called IRAK4; IRAK4 kinase
T3 sequence (looked up): T1 sequence (Q9NWZ3 1-460)
Kind of series: SPR; surface plasmon resonance of synthetic thiopeptides on their target protein; conditions in S.I. 2.10 (not shown). Conditions: both partners purified.

For series [7], the target named is T4, toll-like receptor 10, extracellular domain (UniProt Q9BXR5 20-576).
T4 construct: toll-like receptor 10 (TLR10), extracellular domain; also called TLR10; TLR10 cell surface receptor
T4 sequence (looked up): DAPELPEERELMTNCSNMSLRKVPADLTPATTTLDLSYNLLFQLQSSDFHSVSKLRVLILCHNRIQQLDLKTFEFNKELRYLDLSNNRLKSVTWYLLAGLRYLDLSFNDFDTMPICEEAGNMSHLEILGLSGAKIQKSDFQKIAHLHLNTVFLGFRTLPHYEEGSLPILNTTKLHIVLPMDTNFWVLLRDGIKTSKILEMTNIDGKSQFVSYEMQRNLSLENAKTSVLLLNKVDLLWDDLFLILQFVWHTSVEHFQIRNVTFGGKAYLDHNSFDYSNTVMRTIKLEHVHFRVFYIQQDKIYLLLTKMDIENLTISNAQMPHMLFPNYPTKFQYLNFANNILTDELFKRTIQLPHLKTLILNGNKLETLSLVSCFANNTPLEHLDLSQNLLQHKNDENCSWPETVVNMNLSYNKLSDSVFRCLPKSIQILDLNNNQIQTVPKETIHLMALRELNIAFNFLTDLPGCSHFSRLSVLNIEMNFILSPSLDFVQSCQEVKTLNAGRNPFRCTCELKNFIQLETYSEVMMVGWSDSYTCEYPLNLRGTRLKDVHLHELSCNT
The description is as above. Conditions: both partners purified.

*1 amine or outer side, *2 acyl side, *3 side chain or, on linkers, in order; H or OH if unused. Where a SMILES comes first, the peptide text is derived from it. Where no end group is shown, it is not given here. [ ]: non-standard residue; d: D form. hGln = L-homoglutamine, NC(=O)CCC[C@H](N[*:1])C(=O)[*:2]; pyridine‑bisazole = not defined here; Nle = CCCC[C@H](N)C(=O)O; Dhb = C/C=C(\N)C(=O)O; Dha = C=C(N)C(=O)O

With `C=C1NC(=O)[C@H](CCCCN)NC(=O)[C@H](Cc2c[nH]c3ccccc23)NC(=O)[C@H]([C@@H](C)O)NC(=O)[C@H](CCCNC(=N)N)NC(=O)[C@H](CCCNC(=N)N)NC(=O)[C@H](CCCCN)NC(=O)[C@H](Cc2c[nH]c3ccccc23)NC(=O)[C@H](CCCC(N)=O)NC(=O)[C@H](CC(C)C)NC(=O)[C@H]([C@@H](C)O)NC(=O)[C@H](Cc2c[nH]c3ccccc23)NC(=O)c2ccc(-c3nc(C(=O)OC)cs3)nc2-c2csc1n2` [IR8] (HELM PEPTIDE1{W.T.L.[O=C([C@H](CCCC(=O)[*:3])N[*:1])[*:2]].W.K.R.R.T.W.K}|PEPTIDE2{[am]}|CHEM1{[C=C(N[*:2])c1nc(-c2nc(-c3nc(C(=O)OC)cs3)ccc2C(=O)[*:1])cs1]}$PEPTIDE1,PEPTIDE2,4:R3-1:R1|PEPTIDE1,CHEM1,1:R1-1:R1|PEPTIDE1,CHEM1,11:R2-1:R2$$$V2.0; bridges inferred), in series [1], the “rank in pulldown(+)” value turned out to be 9 and the “rank in pulldown(–)” value is 9. In series [2], this molecule registered a koff of 0.027 s⁻¹ and a kon of 1.24e+06 M⁻¹ s⁻¹. Besides, the half-life at 10 µM in series [3] is 42 ± 4.8 min. In addition, the “display P/N ratio” value in series [4] is 152.
For the molecule `CC[C@@H]1[C@H](F)C(=O)N[C@@H]1COc1nccc2cc(C(N)=O)c(OC)cc12` [PF-06650833, 1-{[(2S,3S,4S)-3-Ethyl-4-fluoro-5-oxopyrrolidin-2-yl]methoxy}-7-methoxyisoquinoline-6-carboxamide, reference compound], the “cytotoxicity (Cell Counting Kit-8)” value in series [5] is given as “not cytotoxic”.

B1: thiopeptide IR11 (synthetic) (peptide)
chain: SWAMSLYWARRRPHSCSC
modifications: bridge (positions not given here) via pyridine‑bisazole; reading uncertain; also: macrocycle closed through pyridine-bisazole moiety, oxazole to thiazole change
In series [6], B1 showed a Kd of 2.7 µM.

B2: thiopeptide IR1 (synthetic) (peptide)
chain: SWS[Nle]KRQFITWHW[Dhb]SCSC
modifications: bridge (positions not given here) via pyridine‑bisazole; reading uncertain; also: macrocycle closed through pyridine-bisazole moiety, oxazole to thiazole change
Molecule B2 returned a Kd in series [6] of 0.23 µM. Compared with the last molecule, the Kd is about 12-fold lower.

B3: thiopeptide IR8 (synthetic) (peptide)
chain: SWTL[hGln]WKRRTWKSCSC
modifications: bridge (positions not given here) via pyridine‑bisazole; reading uncertain; also: macrocycle closed through a pyridine-bisazole moiety, oxazole to thiazole change
The molecule B3 yielded a dissociation constant (Kd) in series [6] of 0.022 µM.

B4: thiopeptide TL19 (synthetic) (peptide)
chain: SWIGRV[Nle]IK[Dha]SSCSC
modifications: bridge (positions not given here) via pyridine‑bisazole; not fully specified (residue 11); reading uncertain; also: Ser11 is an oxazole, macrocycle closed through a pyridine-bisazole moiety
The molecule B4 registered an equilibrium dissociation constant (Kd) in series [7] of 0.57 µM.

B5: thiopeptide TL6 (synthetic) (peptide)
chain: SWT[Nle]LFRLQSKLAISCSC
modifications: bridge (positions not given here) via pyridine‑bisazole; reading uncertain; also: macrocycle closed through a pyridine-bisazole moiety, oxazole to thiazole change
In the case of B5, binding in series [7] was put at a Kd of 0.63 µM.

B6: thiopeptide TL17 (synthetic) (peptide)
chain: SWALLIKQIN[Nle]LY[hGln]SCSC
modifications: bridge (positions not given here) via pyridine‑bisazole; reading uncertain; also: macrocycle closed through a pyridine-bisazole moiety, oxazole to thiazole change
Take B6: in series [7], binding was put at a Kd of 0.36 µM.

For orientation: koff means the rate constant with which the complex falls apart. What is called kon is the second-order rate constant of association. The term Kd denotes the free concentration of one partner at which half of the binding sites on the other are occupied at equilibrium, for simple one-to-one binding. Lower therefore signals tighter binding.
